In assay [1] the target is Kappa-type opioid receptor (Homo sapiens, UniProt P41145). In words: Binding affinity to kappa opioid receptor.
The nature of assay [2]: Selectivity ratio of Ki for mu opioid receptor to kappa opioid receptor.

What is called pKi is the negative decadic logarithm of the Ki, by convention in mol/L. A lower pKi goes with a large Ki.

pKi: −log10 of the molar value. A value given as a limit tells only on which side of the number the result lay.

Kappa-type opioid receptor, sequence (P41145 whole entry): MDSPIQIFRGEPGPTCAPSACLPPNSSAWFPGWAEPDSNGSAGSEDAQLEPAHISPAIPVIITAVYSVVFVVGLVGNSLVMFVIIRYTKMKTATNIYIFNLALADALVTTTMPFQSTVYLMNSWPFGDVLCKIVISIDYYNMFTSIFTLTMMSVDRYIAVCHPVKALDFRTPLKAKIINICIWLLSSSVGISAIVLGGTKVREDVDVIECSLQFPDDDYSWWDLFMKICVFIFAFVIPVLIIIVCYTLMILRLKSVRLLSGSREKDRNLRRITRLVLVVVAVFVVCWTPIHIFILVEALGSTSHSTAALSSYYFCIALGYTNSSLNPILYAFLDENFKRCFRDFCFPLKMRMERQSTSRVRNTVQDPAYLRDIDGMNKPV

`O=C(NC[C@H]1C[C@]23CCN(CC4CC4)[C@H](Cc4ccc(O)cc42)[C@]3(O)CO1)c1ccccc1` had a negative-log Ki (pKi) in assay [1] of 9.87. Moreover, in assay [2], the Ratio Ki is 1.

As for `CN(C(=O)/C=C/c1ccco1)[C@@H]1CC[C@@]2(O)[C@H]3Cc4ccc(O)c5c4[C@@]2(CCN3CC2CC2)[C@H]1O5`, the Ratio Ki in assay [2] was found to be 2.6.

As for `O=C(Nc1ccccc1)[C@@H]1O[C@@]23CC[C@@]1(O)[C@@H]1Oc4c(O)ccc5c4[C@@]12CCN(CC1CC1)[C@@H]3C5`, in assay [1], the pKi was 9.82. In assay [2], the Ratio Ki amounted to 1.3.

In the case of `CN1c2ccccc2C(c2ccccc2F)=NCC1CNC(=O)c1ccsc1` (stereo unspecified) [TIFLUADOM], in assay [1], the pKi is 9.77. For the same compound, in assay [2], the Ratio Ki stood at 8.8.

The compound `O=C(Nc1ccccc1)[C@H]1O[C@@]23CCC1(O)[C@@H]1Oc4c(O)ccc5c4[C@@]12CCN(CC1CC1)[C@@H]3C5` (single isomer, unassigned) had a pKi in assay [1] of 9.95. Also, the Ratio Ki in assay [2] amounted to 1.9.

`CCC12CCN(CC3(O)CC3)C(Cc3ccc(O)cc31)C2(C)C` (stereo unspecified) [BREMAZOCINE] had a pKi in assay [1] of 10.40. The Ratio Ki in assay [2] was 3.8.

With `COC(=O)[C@]12CN(C)C[C@](C(=O)OC)(C1=O)[C@@H](c1ccccn1)N(C)[C@H]2c1ccccn1`, in assay [1], the pKi is 7.82. Besides, in assay [2], the Ratio Ki is > 66.7.

In turn, `NC(=O)[C@H]1CSSC[C@@H](NC(=O)[C@@H](N)Cc2ccc(O)cc2)C(=O)N[C@@H](Cc2ccccc2)C(=O)N1` gave a pKi in assay [1] of 7.41. Moreover, the Ratio Ki in assay [2] came out at 0.03.

For `COc1ccc([C@H]2CN3C(=NC[C@@H]3C)N2CCCc2ccccc2)cc1`, the negative-log Ki (pKi) in assay [1] was 7.41.

The values above are taken from ChEMBL document CHEMBL1165960, “Identification of the three-dimensional pharmacophore of kappa-opioid receptor agonists” (Bioorg Med Chem, 2010).
